Reference: patent US20250144107A1, “USE OF A PIKFYVE INHIBITOR IN COMBINATION WITH IMMUNOTHERAPY” (The Regents of the University of Michigan, priority 2023, published 2025)

How the values were obtained:
[1] = tested on: KPC1361 cells; assay: Immunocytochemistry of MHC-I localization and vacuoles; format: cell-based, mouse; conditions: IFN-γ stimulated KPC1361 cells, vs DMSO
Protocol: FIG. 1D is a series of 6 images showing MHC-I localization in IFN-γ stimulated KPC1361 cells treated with DMSO, Apilimod, or ESK981.
Cancer cells were seeded on cover glasses coated with 0.01% poly-L-Lysine (Sigma-Aldrich; catalog #: A-005-C). The cells were then treated with DMSO, apilimod, or ESK981, and stimulated with 10 ng/ml mouse recombinant IFN-γ (R&D Systems; catalog #: 485-MI) for 24 hours, followed by fixation with 2% paraformaldehyde in PBS and one washing with PBS. The cells were then permeabilized with 0.25% Triton X-100 in PBS, washed with PBS three times, and blocked with 5% goat serum in PBS for one hour at room temperature. After blocking, the cells were incubated with the MHC-I antibody (ER-HR52; Novus Biologicals; catalog #: NB100-64952) at 4° C. overnight, followed by PBS wash for three times and incubation of secondary antibody, Alexa Fluor 488 goat anti-rat IgG antibody (Jackson Immunoresearch; #112-545-167) at room temperature for one hour. After further washing with PBS three times, the cells were stained with DAPI and mounted on slides for imaging.

[2] = tested on: KPC1361 (pancreas), B16-F10 (melanoma), 4T1 (breast), and MyC-CaP (prostate); assay: Flow cytometry of MHC-I surface expression in murine cancer cells; format: cell-based; conditions: with or without IFN-γ; in a dose-dependent manner
Description: (§1) FIG. 1E (Left) is line graphs of flow cytometry measuring MHC-I surface expression in KPC1361 cells, stimulated with or without IFN-γ, treated with DMSO, Apilimod, or ESK981; (Right) are bar graphs of quantification of flow cytometry measuring MHC-I surface expression in KPC1361 cells, stimulated with or without IFN-γ, treated with DMSO, Apilimod, or ESK981.
as §1, with “FIG. 2A” for “FIG. 1E”, “in MyC-CaP” for “in KPC1361”, “(Right) is a” for “(Right) are”, “bar graph” for “bar graphs”
Cancer cells or the OVA-expressing cancer cells treated in vitro were harvested from dishes, resuspended in buffer MACS (PBS containing 2% FBS and 2 mM EDTA), and stained with Zombie NIR™ Fixable Viability kit (BioLegend: #423106) and fluorophore-conjugated antibody against MHC-I or PE-conjugated antibody against SIINFEKL bound H-2Kb (BioLegend; catalog #141604), respectively. The cells were next washed twice with 1 ml MACS and fixed with 2% paraformaldehyde in PBS for 15 minutes at room temperature. The cells were then subjected to the flow cytometer (SONY SH800S) for measuring surface expression of MHC-I or SIINFEKL bound H-2Kb, respectively. […]

[3] = Body weight of treated tumor-bearing mice; format: in vivo; conditions: preclinical models; single agents and in combination with immunotherapies
Description: FIG. 9B is a line graph of the body weight of pancreatic tumor bearing mice, orthotopically injected with KPC1361 cells and treated with an immune checkpoint inhibitor, apilimod, or ESK981 individually, or in combination with each other.
FIG. 11A is a line graph of mice body weight treated with adoptive cell therapy (ACT) in combination with apilimod or ESK981.
FIG. 11B is a line graph of mice body weight treated with personalized vaccines in combination with apilimod or ESK981

Compound | cell surface expression of MHC-I [1] | constitutive and induced surface expression of MHC-I [2] | safety profile [3]
CC(C)Cn1c2ccc(Nc3ncccn3)cc2c2c3c(c4c(c21)CCc1nn(C)cc1-4)C(=O)NC3 [ESK981, 13-isobutyl-4-methyl-10-(pyrimidin-2-ylamino)-1,2,4,7,8,13-hexahydro-6H-indazolo[5,4-a]pyrrolo[3,4-c]carbazol-6-one] | increased | upregulated | favorable safety profiles
Cc1cccc(/C=N/Nc2cc(N3CCOCC3)nc(OCCc3ccccn3)n2)c1 [apilimod, N-[(E)-(3-methylphenyl)methylideneamino]-6-morpholin-4-yl-2-(2-pyridin-2-ylethoxy)pyrimidin-4-amine] | increased | upregulated | favorable safety profiles
